Source: ChEMBL document CHEMBL5726611, “Factor XIA inhibitors” (2019)
pKi: −log10 of the molar value.

biological target: Coagulation factor XI (Homo sapiens, UniProt P03951); experiment: Factor XIa Assay: The effectiveness of a compound of the present invention as an inhibitor of Coagulation Factor XIa can be determined using a relevant purified serine protease, and an appropriate synthetic substrate. The rate of hydrolysis of the chromogenic or fluorogenic substrate by the relevant serine protease was measured both in the absence and presence of compounds of the present invention. Assays were conducted at rt or at 37° C. […] A decrease in the rate of fluorescence change in the presence of inhibitor is indicative of enzyme inhibition. Such methods are known to one skilled in the art. […] Times required to achieve equilibration between enzyme and inhibitor were determined in control experiments. Initial velocities of product formation in the absence (Vo) or presence of inhibitor (Vi) were measured. Assuming competitive inhibition, and that unity is negligible compared Km/[S], [I]/e, and [I]/e (where [S], [I], and e respectively represent the total concentrations, of substrate, inhibitor and enzyme), the equilibrium constant (Ki) for dissociation of the inhibitor from the enzyme can be obtained from the dependence of Vo/Vi on [I] shown in the following equation.
Sequence (P03951 19-387 limits assumed): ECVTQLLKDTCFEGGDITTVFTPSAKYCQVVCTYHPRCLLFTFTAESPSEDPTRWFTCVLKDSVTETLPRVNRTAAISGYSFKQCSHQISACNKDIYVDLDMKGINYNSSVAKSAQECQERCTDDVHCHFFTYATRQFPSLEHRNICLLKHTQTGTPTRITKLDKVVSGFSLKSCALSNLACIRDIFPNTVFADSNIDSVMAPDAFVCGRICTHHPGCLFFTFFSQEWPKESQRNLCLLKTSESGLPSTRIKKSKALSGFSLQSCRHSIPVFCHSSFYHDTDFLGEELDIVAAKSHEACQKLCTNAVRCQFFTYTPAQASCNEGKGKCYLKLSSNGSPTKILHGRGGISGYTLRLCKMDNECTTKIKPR
Sequence (P03951 388-625 limits assumed): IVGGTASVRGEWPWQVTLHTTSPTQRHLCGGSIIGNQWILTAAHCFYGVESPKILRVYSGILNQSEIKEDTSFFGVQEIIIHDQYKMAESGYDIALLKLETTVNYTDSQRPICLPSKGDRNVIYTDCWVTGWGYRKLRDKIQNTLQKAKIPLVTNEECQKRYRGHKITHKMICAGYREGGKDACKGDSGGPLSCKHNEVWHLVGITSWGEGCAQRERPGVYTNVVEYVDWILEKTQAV

**Q.** With `COC(=O)Nc1ccc2c(c1)NC(=O)CCCCC(c1ccc(-c3cc(Cl)ccc3-c3cnn(C(F)F)c3)cn1)c1cccc-2c1` (stereo unspecified) as the compound, how does the pKi read?
**A.** The pKi was 6.19.

**Q.** `COC(=O)Nc1ccc2c(c1)NC(=O)CCCCC(c1ccc(-c3cc(F)ccc3-n3cnnn3)cn1)c1cccc-2c1` (stereo unspecified) was tested. Which pKi did it give?
**A.** Its pKi is 8.15.

**Q.** How did the pKi turn out when `COC(=O)Nc1ccc2c(c1)NC(=O)CCCCC(c1ccc(-c3cc(Cl)ccc3C#N)cn1)c1cccc-2c1` (stereo unspecified) was run?
**A.** Its pKi is 7.39.

**Q.** How did the pKi turn out when `COC(=O)Nc1ccc2c(c1)NC(=O)CCCCC(c1ccc(-c3cc(Cl)ccc3OC(F)(F)F)cn1)c1cccc-2c1` (stereo unspecified) was run?
**A.** The pKi was 6.40.

**Q.** How did the pKi turn out when `COC(=O)Nc1ccc2c(c1)NC(=O)CCCCC(c1ccc(-c3c(F)cccc3OC(F)F)cn1)c1cccc-2c1` (stereo unspecified) was run?
**A.** The pKi was under 6.06.

**Q.** How did the pKi turn out when `COC(=O)Nc1ccc2c(c1)NC(=O)CCCCC(c1ccc(-c3cc(Cl)ccc3-n3cc(C(F)(F)F)nn3)cn1)c1cccc-2c1` (stereo unspecified) was run?
**A.** The pKi was 7.74.

**Q.** `COC(=O)Nc1ccc2c(c1)NC(=O)CCCCC(c1ccc(-c3cc(Cl)ccc3-n3cc(C4CC4)nn3)cn1)c1cccc-2c1` (stereo unspecified) was tested. Which pKi did it give?
**A.** Its pKi is 6.86.

**Q.** `COC(=O)Nc1ccc2c(c1)NC(=O)CCCCC(c1ccc(-c3cc(Cl)ccc3-n3cc(C(F)F)nn3)cn1)c1cccc-2c1` (stereo unspecified) was tested. Which pKi did it give?
**A.** The pKi was 8.04.

**Q.** How did the pKi turn out when `COC(=O)Nc1ccc2c(c1)NC(=O)CCCCC(c1ccc(-c3c(-n4cnnn4)ccc(Cl)c3F)cn1)c1cccc-2c1` (stereo unspecified) was run?
**A.** The pKi was 9.62.

**Q.** How did the pKi turn out when `COC(=O)Nc1ccc2c(c1)NC(=O)CCCCC(c1ccc(-c3cc(Cl)ccc3C(F)(F)F)cn1)c1cccc-2c1` (stereo unspecified) was run?
**A.** Its pKi is under 6.06.

**Q.** How did the pKi turn out when `COC(=O)Nc1ccc2c(c1)NC(=O)CCCCC(c1ccc(-c3cc(Cl)ccc3-n3cc(C#N)cn3)cn1)c1cccc-2c1` (stereo unspecified) was run?
**A.** The pKi was 6.68.

**Q.** How did the pKi turn out when `COC(=O)Nc1ccc2c(c1)NC(=O)CCCCC(c1ccc(-c3c(-n4cc(C(F)(F)F)nn4)ccc(Cl)c3F)cn1)c1cccc-2c1` (stereo unspecified) was run?
**A.** The pKi was 8.69.

**Q.** With `COC(=O)Nc1ccc2c(c1)NC(=O)CCCCC(c1ccc(-c3cc(Cl)ccc3-n3cc(C(F)(F)F)cn3)cn1)c1cccc-2c1` (stereo unspecified) as the compound, how does the pKi read?
**A.** The pKi was 6.15.

**Q.** With `COC(=O)Nc1ccc2c(c1)NC(=O)CCCCC(c1ccc(-c3cc(Cl)ccc3-c3cnco3)cn1)c1cccc-2c1` (stereo unspecified) as the compound, how does the pKi read?
**A.** Its pKi is 6.59.

**Q.** `COC(=O)Nc1ccc2c(c1)NC(=O)CCCCC(c1ccc(-c3cc(Cl)ccc3-n3cc(Cl)nn3)cn1)c1cccc-2c1` (stereo unspecified) was tested. Which pKi did it give?
**A.** The pKi was 7.92.

**Q.** How did the pKi turn out when `COC(=O)Nc1ccc2c(c1)NC(=O)CCCCC(c1ccc(-c3cc(Cl)ccc3OC(F)F)cn1)c1cccc-2c1` (stereo unspecified) was run?
**A.** The pKi was 6.74.
